Remaining binding data for 1 compound are collected here from publication PMC10507085, “Pharmacological inhibition of TBK1/IKKε blunts immunopathology in a murine model of SARS-CoV-2 infection” (Nature Communications, 2023).

Structures are written as SMILES.

Among the targets are ANKK1 (Homo sapiens, UniProt Q8NFD2); BUB1 (Homo sapiens, UniProt O43683); CAMK4 (Homo sapiens, UniProt Q16566); CDK11B (Homo sapiens, UniProt P21127); CDK5 (Homo sapiens, UniProt Q00535); CSF1R-autoinhibited (Homo sapiens, UniProt P07333); DCLK2 (Homo sapiens, UniProt Q8N568); EPHA7 (Homo sapiens, UniProt Q15375); EPHA8 (Homo sapiens, UniProt P29322); EPHB1 (Homo sapiens, UniProt P54762); EPHB3 (Homo sapiens, UniProt P54753); HIPK2 (Homo sapiens, UniProt Q9H2X6); HUNK (Homo sapiens, UniProt P57058); MAP3K4 (Homo sapiens, UniProt Q9Y6R4); NUAK2 (Homo sapiens, UniProt Q9H093); PRKX (Homo sapiens, UniProt P51817); SGK3 (Homo sapiens, UniProt Q96BR1); SNRK (Homo sapiens, UniProt Q9NRH2).

Assay in all cases: biochemical
Set-up in all cases: KINOMEscan competition binding, DNA-tagged kinase against immobilised ligand, qPCR read-out
Settings in all cases: read-out: Percent Control
(Quantitative PCR measures a nucleic acid by following its amplification.)

In the next test the target is T1, CDC2L2 (Homo sapiens, UniProt Q9UQ88).
T1 construct: gene CDK11A

The next test has as its target T2, KIAA0999 (Homo sapiens, UniProt Q9Y2K2).
T2 construct: gene SIK3

Sequence of MAP3K4 (Q9Y6R4 whole entry): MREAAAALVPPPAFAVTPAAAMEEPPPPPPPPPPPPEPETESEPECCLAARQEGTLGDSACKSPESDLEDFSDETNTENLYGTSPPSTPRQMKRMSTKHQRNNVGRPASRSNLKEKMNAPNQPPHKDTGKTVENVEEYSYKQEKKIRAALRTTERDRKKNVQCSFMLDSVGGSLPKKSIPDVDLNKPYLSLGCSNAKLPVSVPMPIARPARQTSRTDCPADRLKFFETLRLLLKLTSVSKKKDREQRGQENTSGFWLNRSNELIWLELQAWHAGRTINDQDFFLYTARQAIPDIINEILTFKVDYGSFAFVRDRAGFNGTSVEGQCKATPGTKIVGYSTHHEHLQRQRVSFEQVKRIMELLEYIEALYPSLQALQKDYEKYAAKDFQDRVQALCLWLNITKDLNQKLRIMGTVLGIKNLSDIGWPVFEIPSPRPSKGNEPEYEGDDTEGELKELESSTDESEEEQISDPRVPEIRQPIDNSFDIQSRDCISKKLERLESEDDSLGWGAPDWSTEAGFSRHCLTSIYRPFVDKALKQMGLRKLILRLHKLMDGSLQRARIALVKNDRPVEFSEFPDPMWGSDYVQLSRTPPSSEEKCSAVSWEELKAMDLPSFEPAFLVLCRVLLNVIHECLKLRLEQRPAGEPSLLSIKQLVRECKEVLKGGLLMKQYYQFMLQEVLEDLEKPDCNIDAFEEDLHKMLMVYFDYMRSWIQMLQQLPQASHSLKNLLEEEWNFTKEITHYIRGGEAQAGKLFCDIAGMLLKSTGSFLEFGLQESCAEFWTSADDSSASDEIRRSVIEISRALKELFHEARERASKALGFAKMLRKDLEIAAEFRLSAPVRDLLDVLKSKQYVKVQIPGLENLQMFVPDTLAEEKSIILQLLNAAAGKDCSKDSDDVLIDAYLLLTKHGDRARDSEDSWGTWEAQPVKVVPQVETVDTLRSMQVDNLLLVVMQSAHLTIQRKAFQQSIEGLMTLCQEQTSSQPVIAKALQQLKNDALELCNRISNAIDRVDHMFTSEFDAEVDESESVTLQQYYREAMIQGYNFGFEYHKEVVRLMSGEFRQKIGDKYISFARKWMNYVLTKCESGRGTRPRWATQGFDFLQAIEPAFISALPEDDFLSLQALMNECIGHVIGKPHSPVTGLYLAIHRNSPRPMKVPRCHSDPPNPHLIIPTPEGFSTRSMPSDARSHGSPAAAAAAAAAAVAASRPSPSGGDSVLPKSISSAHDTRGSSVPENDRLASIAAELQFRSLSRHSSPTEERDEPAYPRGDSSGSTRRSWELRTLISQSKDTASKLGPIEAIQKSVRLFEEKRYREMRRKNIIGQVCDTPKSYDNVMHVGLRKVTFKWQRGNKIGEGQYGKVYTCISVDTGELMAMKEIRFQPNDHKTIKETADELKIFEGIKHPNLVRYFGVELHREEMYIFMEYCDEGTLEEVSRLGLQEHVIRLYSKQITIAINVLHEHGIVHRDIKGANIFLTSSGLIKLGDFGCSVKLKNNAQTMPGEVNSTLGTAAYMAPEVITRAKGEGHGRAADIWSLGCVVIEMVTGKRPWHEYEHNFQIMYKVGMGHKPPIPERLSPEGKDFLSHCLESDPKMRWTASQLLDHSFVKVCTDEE
Sequence of DCLK2 (Q8N568 whole entry): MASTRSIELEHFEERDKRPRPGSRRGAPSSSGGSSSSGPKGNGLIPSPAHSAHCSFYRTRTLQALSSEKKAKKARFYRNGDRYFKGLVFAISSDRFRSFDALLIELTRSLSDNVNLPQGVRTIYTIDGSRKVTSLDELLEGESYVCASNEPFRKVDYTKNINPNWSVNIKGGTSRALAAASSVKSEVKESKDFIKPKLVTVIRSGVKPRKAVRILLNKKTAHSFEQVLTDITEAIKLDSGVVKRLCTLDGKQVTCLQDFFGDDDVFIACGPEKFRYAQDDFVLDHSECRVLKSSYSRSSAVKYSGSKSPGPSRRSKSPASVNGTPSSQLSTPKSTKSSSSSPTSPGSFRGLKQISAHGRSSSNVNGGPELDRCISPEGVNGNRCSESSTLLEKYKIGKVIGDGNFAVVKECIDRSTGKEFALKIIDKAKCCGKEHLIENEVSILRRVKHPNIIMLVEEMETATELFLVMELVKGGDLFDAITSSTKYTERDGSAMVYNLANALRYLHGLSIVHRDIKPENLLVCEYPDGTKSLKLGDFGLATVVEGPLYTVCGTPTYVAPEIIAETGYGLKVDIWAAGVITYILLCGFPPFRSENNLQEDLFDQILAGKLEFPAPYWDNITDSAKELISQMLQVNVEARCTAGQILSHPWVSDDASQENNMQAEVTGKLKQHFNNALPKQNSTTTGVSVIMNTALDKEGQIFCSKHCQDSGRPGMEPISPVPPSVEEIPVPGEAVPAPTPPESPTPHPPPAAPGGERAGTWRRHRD
Sequence of HUNK (P57058 whole entry): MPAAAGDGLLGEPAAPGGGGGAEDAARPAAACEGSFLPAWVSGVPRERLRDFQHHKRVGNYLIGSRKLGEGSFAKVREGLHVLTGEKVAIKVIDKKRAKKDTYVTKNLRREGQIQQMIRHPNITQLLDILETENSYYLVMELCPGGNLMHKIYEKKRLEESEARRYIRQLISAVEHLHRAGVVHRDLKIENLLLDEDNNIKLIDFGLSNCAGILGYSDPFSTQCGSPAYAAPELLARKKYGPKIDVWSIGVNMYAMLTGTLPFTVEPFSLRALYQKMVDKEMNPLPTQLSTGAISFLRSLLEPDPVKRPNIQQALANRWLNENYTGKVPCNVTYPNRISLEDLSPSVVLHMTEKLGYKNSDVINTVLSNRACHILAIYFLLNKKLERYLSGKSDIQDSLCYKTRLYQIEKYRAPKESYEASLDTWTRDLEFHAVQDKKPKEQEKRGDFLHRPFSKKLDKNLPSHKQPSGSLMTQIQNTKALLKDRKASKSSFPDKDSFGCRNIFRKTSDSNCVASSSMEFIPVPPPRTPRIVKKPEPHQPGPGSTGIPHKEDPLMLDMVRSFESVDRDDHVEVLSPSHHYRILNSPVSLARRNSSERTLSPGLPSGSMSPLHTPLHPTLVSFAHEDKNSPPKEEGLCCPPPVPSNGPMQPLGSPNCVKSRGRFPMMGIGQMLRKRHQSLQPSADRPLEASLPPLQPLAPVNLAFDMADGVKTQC
Sequence of BUB1 (O43683 whole entry): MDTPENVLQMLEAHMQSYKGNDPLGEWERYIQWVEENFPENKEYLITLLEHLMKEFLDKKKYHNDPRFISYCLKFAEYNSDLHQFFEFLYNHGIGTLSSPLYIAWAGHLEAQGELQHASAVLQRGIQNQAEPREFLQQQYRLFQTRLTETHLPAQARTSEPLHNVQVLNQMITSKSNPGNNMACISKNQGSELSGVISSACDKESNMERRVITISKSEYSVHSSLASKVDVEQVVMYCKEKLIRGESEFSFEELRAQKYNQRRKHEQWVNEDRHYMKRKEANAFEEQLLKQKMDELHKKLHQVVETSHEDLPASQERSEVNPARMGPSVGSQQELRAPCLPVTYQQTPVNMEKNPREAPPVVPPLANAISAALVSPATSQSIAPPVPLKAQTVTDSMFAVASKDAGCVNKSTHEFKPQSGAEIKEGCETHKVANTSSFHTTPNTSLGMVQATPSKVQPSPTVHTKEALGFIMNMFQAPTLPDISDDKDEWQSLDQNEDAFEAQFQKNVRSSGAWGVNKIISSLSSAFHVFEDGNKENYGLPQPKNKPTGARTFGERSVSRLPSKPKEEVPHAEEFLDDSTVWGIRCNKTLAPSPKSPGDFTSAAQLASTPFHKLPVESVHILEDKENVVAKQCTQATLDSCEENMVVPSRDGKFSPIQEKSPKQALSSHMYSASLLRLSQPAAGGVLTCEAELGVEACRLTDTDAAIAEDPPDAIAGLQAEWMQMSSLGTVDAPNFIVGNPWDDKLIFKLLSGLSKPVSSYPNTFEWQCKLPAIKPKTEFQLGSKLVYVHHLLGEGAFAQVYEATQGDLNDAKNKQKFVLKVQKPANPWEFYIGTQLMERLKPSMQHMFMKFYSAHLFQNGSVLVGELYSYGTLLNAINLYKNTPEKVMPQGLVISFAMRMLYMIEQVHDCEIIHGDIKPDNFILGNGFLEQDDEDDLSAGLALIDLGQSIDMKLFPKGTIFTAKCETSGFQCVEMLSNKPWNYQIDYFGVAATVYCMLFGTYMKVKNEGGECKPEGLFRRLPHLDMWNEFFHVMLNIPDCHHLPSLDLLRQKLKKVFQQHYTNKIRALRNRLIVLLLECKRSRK
Sequence of NUAK2 (Q9H093 whole entry): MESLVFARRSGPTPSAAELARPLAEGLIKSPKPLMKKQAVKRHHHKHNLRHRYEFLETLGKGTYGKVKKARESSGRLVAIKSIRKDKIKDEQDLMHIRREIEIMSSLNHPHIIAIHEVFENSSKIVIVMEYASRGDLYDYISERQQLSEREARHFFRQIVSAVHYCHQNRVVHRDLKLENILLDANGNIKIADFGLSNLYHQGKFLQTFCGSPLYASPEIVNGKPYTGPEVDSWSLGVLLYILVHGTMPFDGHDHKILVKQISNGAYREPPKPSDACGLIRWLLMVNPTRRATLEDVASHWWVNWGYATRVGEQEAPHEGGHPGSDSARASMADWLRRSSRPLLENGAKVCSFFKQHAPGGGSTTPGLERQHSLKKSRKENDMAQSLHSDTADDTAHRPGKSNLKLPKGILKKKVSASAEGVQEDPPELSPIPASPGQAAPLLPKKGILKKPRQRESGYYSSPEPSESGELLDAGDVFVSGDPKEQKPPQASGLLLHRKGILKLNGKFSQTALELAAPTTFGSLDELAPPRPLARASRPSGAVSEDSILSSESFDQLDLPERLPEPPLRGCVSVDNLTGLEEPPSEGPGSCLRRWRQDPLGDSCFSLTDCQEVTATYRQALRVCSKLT
Sequence of CDK5 (Q00535 whole entry): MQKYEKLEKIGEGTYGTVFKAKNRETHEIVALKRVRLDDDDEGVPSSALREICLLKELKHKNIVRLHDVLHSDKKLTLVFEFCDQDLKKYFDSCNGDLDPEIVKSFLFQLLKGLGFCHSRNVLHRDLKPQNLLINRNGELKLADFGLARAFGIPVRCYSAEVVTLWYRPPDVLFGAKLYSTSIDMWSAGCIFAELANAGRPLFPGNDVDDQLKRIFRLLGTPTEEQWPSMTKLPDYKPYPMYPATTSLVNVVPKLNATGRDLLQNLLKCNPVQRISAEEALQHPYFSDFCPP

`Oc1ccc(C2=Cc3ccc(O)cc3OC2)cc1` [compound 1, idronoxil]: the remaining binding at 10 µM worked out at 66% at ANKK1; 91% at BUB1; 100% at CAMK4; 69% on CDC2L2; 96% at CDK11B; 100% on CDK5. Further, the remaining binding at 10 µM at CSF1R-autoinhibited worked out at 67%; on DCLK2, 73%; on EPHA7 it was 96%; on EPHA8, 89%; on EPHB1 it was 84%; at EPHB3 it was 95%. The remaining binding at 10 µM was 47% on HIPK2; 69% on HUNK; 89% on KIAA0999; 76% on MAP3K4; 68% at NUAK2; 88% at PRKX. The values for the remaining binding at 10 µM at SGK3 and on SNRK were 49% and 81%, respectively.
